Data as given in patent US10118954B2, “Apelin analogues” (University of Ulster, priority 2014, dated 2018).

Tested on: NIH Swiss mice fed a high-fat diet for 150 days
Assay: Acute and delayed i.p. glucose tolerance test, blood glucose and plasma insulin
Assay type: in vivo
Conditions: fatty acid derived agonists
Method in brief: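 Diet-induced obese-diabetic mice (high-fat diet 150 days, 18 h fasted) received i.p. glucose (18 mmol/kg) alone or with apelin analogues (25 nmol/kg), or analogues given 2, 8 or 16 h beforehand. Tail blood glucose and plasma insulin sampled at 0, 15, 30, 60, 105 min; n=8, mean±SEM.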

[1] = 16 h delayed i.p. glucose tolerance test, 25 nmol/kg
[2] = acute i.p. glucose tolerance test, 25 nmol/kg

Compound: CCCCCCCCCCCCCCCC(=O)N[C@@H](CCC(=O)NCCCC[C@H](NC(=O)[C@H](Cc1c[nH]cn1)NC(=O)[C@H](CO)NC(=O)[C@H](CC(C)C)NC(=O)[C@H](CCCNC(=N)N)NC(=O)[C@@H]1CCCN1C(=O)[C@H](CCCNC(=N)N)NC(=O)[C@@H]1CCC(=O)N1)C(=O)NCC(=O)N1CCC[C@H]1C(=O)N[C@@H](CCSC)C(=O)N1CCC[C@H]1C(=O)N[C@@H](Cc1ccccc1)C(N)=O)C(=O)O [pGlu(Lys^8GluPAL)apelin-13-amide]
- Rank order on basis of anti-hyperglycaemic efficacy (16 h delay): 1
- Blood glucose as percent of glucose-alone control (lower = stronger glucose lowering) [1]: 57% (**)
- Insulin secretion, where glucose alone = 100% [1]: 150% (***)
- Rank order on basis of anti-hyperglycaemic efficacy (acute): 1
- Glucose lowering, where glucose alone = 100% [2]: 79%
- Insulin secretion, where glucose alone = 100% [2]: 119% (*)
